Experiments:
[1] = system: symptomatic subjects with PAH; test: Oxygen desaturation (drop in SpO2 from beginning to end of six-minute walk test), Phase 2 study IK-7001-PAH-201; assay type: in vivo, human
Description: (§1) This study was a Phase 2, placebo controlled, double-blind, randomized, clinical study to determine the safety, tolerability and efficacy of pulsed iNO versus placebo as add-on therapy in symptomatic subjects with PAH (IK-7001-PAH-201; NCT01457781). The primary outcome of this study was change from baseline in pulmonary vascular resistance (PVR). Secondary outcome measure included change in 6MWD, time to first clinical worsening event (TTCW), change in WHO functional class, change in Borg Dyspnea Score (BDS) and change in patient reported outcome (PRO) scores by the SF-36 short form version 2 and the Cambridge Pulmonary Hypertension Outcome Review (CAMPHOR).
(§2) PAH subjects were administered pulsed iNO at a dose of 25 or 75 mcg/IBW kg/hr for up to 24 hours a day for up to 16 weeks, or received pulsed placebo (99.999% N2) for up to 24 hours a day for up to 16 weeks. The dose of 25 mcg/kg IBW/hr was administered from a mini-cylinder having 2,440 ppm NO and the dose of 75 mcg/kg IBW/hr was administered from a mini-cylinder having 4,880 ppm NO.
(§3) All subjects were receiving at least one approved PAH therapy and were clinically symptomatic from PAH (e.g. onset or increased dyspnea on exertion, dizziness, near-syncope, syncope, chest pain or peripheral edema).
Oxygen desaturation was measured as the drop in SpO2 level from the beginning to the end of the six-minute walk test (6MWT). Oxygen desaturation was measured at baseline and after 16 weeks of chronic treatment with iNO at a dose of 75 mcg/kg IBW/hr (iNO 75) or 25 mcg/kg IBW/hr (iNO 25) or placebo.

[2] = system: symptomatic subjects with PAH; test: Exercise capacity (change in 6MWD from baseline to 16 weeks), Phase 2 study IK-7001-PAH-201; assay type: in vivo, human
Description: as §1, §2, §3
Also shown is the change in exercise capacity, measured as the change in 6MWD from baseline to 16 weeks.

## [N]=O [iNO, nitric oxide]
[1]; iNO 25 mcg/kg IBW/hr, pulsed, up to 24 h/day, baseline to 16 weeks (LOCF), PAH subjects
  Change in Oxygen Desaturation (SpO2): −0.14
[1]; iNO 75 mcg/kg IBW/hr, pulsed, up to 24 h/day, baseline to 16 weeks (LOCF), all PAH subjects
  Change in Oxygen Desaturation (SpO2): −2.19
[1]; iNO 75 mcg/kg IBW/hr, No LTOT, baseline to 16 weeks, PAH subjects
  Change in Oxygen Desaturation (SpO2): 0.40
[1]; iNO 75 mcg/kg IBW/hr, compliant >12 hrs per day, No LTOT, baseline to 16 weeks, PAH subjects
  Change in Oxygen Desaturation (SpO2): 1.33
[1]; iNO 75 mcg/kg IBW/hr, compliant >12 hrs per day, with LTOT, baseline to 16 weeks, PAH subjects
  Change in Oxygen Desaturation (SpO2): −3.36
[1]; iNO 75 mcg/kg IBW/hr, with LTOT, baseline to 16 weeks, PAH subjects
  Change in Oxygen Desaturation (SpO2): −3.00
[2]; iNO 25 mcg/kg IBW/hr, pulsed, up to 24 h/day, PAH subjects
  Change in 6MWD (meters): 4.7 meters
[2]; iNO 75 mcg/kg IBW/hr, No LTOT, PAH subjects
  Change in 6MWD (meters): −20.8 meters
[2]; iNO 75 mcg/kg IBW/hr, compliant >12 hrs per day, No LTOT, PAH subjects
  Change in 6MWD (meters): −29.7 meters
[2]; iNO 75 mcg/kg IBW/hr, compliant >12 hrs per day, with LTOT, PAH subjects
  Change in 6MWD (meters): 52.4 meters
[2]; iNO 75 mcg/kg IBW/hr, pulsed, up to 24 h/day, all PAH subjects
  Change in 6MWD (meters): 22.8 meters
[2]; iNO 75 mcg/kg IBW/hr, with LTOT, PAH subjects
  Change in 6MWD (meters): 34.9 meters
